Activity calls are given as the source filed them. The rule behind the calls is not given here.
Columns and labels:
SK-N-AS [1] = experiment: Growth inhibition of human SK-N-AS cells at 1 uM after 24 hrs by MTT assay relative to control; type: functional; settings: read-out: GI
SK-N-AS [2] = experiment: Growth inhibition of human SK-N-AS cells at 1 uM after 72 hrs by MTT assay relative to control; type: functional; settings: read-out: GI
IMR-32 [3] = experiment: Growth inhibition of human IMR32 cells at 0.1 uM after 24 hrs by MTT assay relative to control; type: functional; settings: IMR-32, 24 h, read-out: GI
IMR-32 [4] = experiment: Growth inhibition of human IMR32 cells at 0.1 uM after 72 hrs by MTT assay relative to control; type: functional; settings: IMR-32, 72 h, read-out: GI
IMR-32 [5] = experiment: Growth inhibition of human IMR32 cells at 0.4 uM after 72 hrs by MTT assay relative to control; type: functional; settings: IMR-32, 72 h, read-out: GI
IMR-32 [6] = experiment: Growth inhibition of human IMR32 cells at 0.01 uM after 72 hrs by MTT assay relative to control; type: functional; settings: IMR-32, 72 h, read-out: GI
SK-N-AS [7] = experiment: Cell cycle arrest in human SK-N-AS cells assessed as increase in G0/G1 cell population at 0.4 uM after 24 hrs by propidium iodide staining based flow cytometry relative to control; type: functional
SK-N-AS [8] = experiment: Cell cycle arrest in human SK-N-AS cells assessed as increase in G0/G1 cell population at 0.4 uM after 48 hrs by propidium iodide staining based flow cytometry relative to control; type: functional
SK-N-AS [9] = experiment: Cell cycle arrest in human SK-N-AS cells assessed as increase in G0/G1 cell population at 0.4 uM after 72 hrs by propidium iodide staining based flow cytometry relative to control; type: functional
SK-N-AS [10] = experiment: Cell cycle arrest in human SK-N-AS cells assessed as decrease in S phase population at 0.4 uM after 24 hrs by propidium iodide staining based flow cytometry relative to control; type: functional
SK-N-AS [11] = experiment: Cell cycle arrest in human SK-N-AS cells assessed as decrease in S phase population at 0.4 uM after 48 hrs by propidium iodide staining based flow cytometry relative to control; type: functional
SK-N-AS [12] = experiment: Cell cycle arrest in human SK-N-AS cells assessed as decrease in G2/M phase population at 0.4 uM after 48 hrs by propidium iodide staining based flow cytometry relative to control; type: functional
SK-N-AS [13] = experiment: Cell cycle arrest in human SK-N-AS cells assessed as decrease in G2/M phase population at 0.4 uM after 72 hrs by propidium iodide staining based flow cytometry relative to control; type: functional
SK-N-AS [14] = experiment: Cell cycle arrest in human SK-N-AS cells at 4 uM by propidium iodide staining based flow cytometry; type: functional; settings: TDE = time-dependent effect
SK-N-AS [15] = experiment: Cell cycle arrest in human SK-N-AS cells assessed as increase in sub-G1 phase population at 0.4 uM after 24 hrs by propidium iodide staining based flow cytometry relative to control; type: functional
SK-N-AS [16] = experiment: Cell cycle arrest in human SK-N-AS cells assessed as increase in sub-G1 phase population at 4 uM after 24 hrs by propidium iodide staining based flow cytometry relative to control; type: functional
SK-N-AS [17] = experiment: Induction of apoptosis in human SK-N-AS cells assessed as increase in caspase-3 activity at 0.4 uM after 8 hrs by CPP32 based colorimetric assay relative to control; type: functional
SK-N-AS [18] = experiment: Induction of apoptosis in human SK-N-AS cells assessed as increase in caspase-3 activity at 4 uM after 8 hrs by CPP32 based colorimetric assay relative to control; type: functional
SK-N-AS [19] = experiment: Induction of apoptosis in human SK-N-AS cells assessed as increase in caspase-3 activity at 0.4 uM after 24 hrs by CPP32 based colorimetric assay relative to control; type: functional
SK-N-AS [20] = experiment: Induction of apoptosis in human SK-N-AS cells assessed as increase in caspase-3 activity at 4 uM after 24 hrs by CPP32 based colorimetric assay relative to control; type: functional
SK-N-AS [21] = experiment: Induction of apoptosis in human SK-N-AS cells assessed as increase in caspase-3 activity at 4 uM by CPP32 based colorimetric assay; type: functional, cell-based; settings: TDE = time-dependent effect
SK-N-AS [22] = experiment: Induction of apoptosis in human SK-N-AS cells assessed as decrease in Bcl-2 mRNA expression level after 24 hrs by real-time PCR method; type: functional, cell-based
SK-N-AS [23] = experiment: Induction of apoptosis in human SK-N-AS cells assessed as decrease in Bcl-2 mRNA expression level after 8 hrs by real-time PCR method; type: functional, cell-based
SK-N-AS [24] = experiment: Induction of apoptosis in human SK-N-AS cells assessed as decrease in Bcl-2 mRNA expression level at 0.4 uM after 24 hrs by real-time PCR method relative to control; type: functional; parameters: scale not given: the % may be the effect or the level left
SK-N-AS [25] = experiment: Induction of apoptosis in human SK-N-AS cells assessed as decrease in Bcl-2 mRNA expression level at 4 uM after 24 hrs by real-time PCR method relative to control; type: functional; parameters: scale not given: the % may be the effect or the level left
IMR-32 [26] = experiment: Induction of apoptosis in human IMR32 cells assessed as decrease in Bcl-2 mRNA expression level at 0.4 to 4 uM after 24 hrs by real-time PCR method relative to control; type: functional; parameters: scale not given: the % may be the effect or the level left
IMR-32 [27] = experiment: Induction of apoptosis in human IMR32 cells assessed as decrease in Bcl-2 mRNA expression level at 0.4 to 4 uM after 8 hrs by real-time PCR method; type: functional, cell-based
IMR-32 [28] = experiment: Reduction in N-myc mRNA expression level in human IMR32 cells at 4 uM after 24 hrs by real-time PCR method relative to control; type: functional; parameters: scale not given: the % may be the effect or the level left
IMR-32 [29] = experiment: Reduction in N-myc mRNA expression level in human IMR32 cells at 0.4 to 4 uM after 8 hrs by real-time PCR method; type: functional, cell-based
SK-N-AS [30] = experiment: Antitumor activity against human SK-N-AS cells xenografted in specific-pathogen-free KSN athymic nude mouse assessed as tumor growth inhibition at 12.5 mg/kg/day administered ip for 2 weeks measured on day 21 relative to control; type: functional; settings: read-out: TGI
SK-N-AS [31] = experiment: Antitumor activity against human SK-N-AS cells xenografted in specific-pathogen-free KSN athymic nude mouse assessed as tumor growth inhibition at 50 mg/kg/day administered ip for 2 weeks measured on day 21 relative to control; type: functional; settings: read-out: TGI
SK-N-AS [32] = experiment: Antitumor activity against human SK-N-AS cells xenografted in specific-pathogen-free KSN athymic nude mouse assessed as decrease in tumor weight at 12.5 mg/kg/day administered ip for 2 weeks measured on day 21 relative to control; type: functional; parameters: scale not given: the % may be the effect or the level left
SK-N-AS [33] = experiment: Antitumor activity against human SK-N-AS cells xenografted in specific-pathogen-free KSN athymic nude mouse assessed as decrease in tumor weight at 50 mg/kg/day administered ip for 2 weeks measured on day 21 relative to control; type: functional; parameters: scale not given: the % may be the effect or the level left
Mus musculus = experiment: Toxicity in specific-pathogen-free KSN athymic nude mouse xenografted with human SK-N-AS cells assessed as change in body weight at 12.5 to 50 mg/kg/day administered ip for 2 weeks measured on day 21; type: organism-based; settings: in vivo, 336 h
SK-N-AS [34] = experiment: Cell cycle arrest in human SK-N-AS cells assessed as accumulation at sub-G1 phase at 0.4 uM after 8 hrs by propidium iodide staining based flow cytometry (reference value: 1.13 +/- 0.13%); type: functional
SK-N-AS [35] = experiment: Cell cycle arrest in human SK-N-AS cells assessed as accumulation at sub-G1 phase at 0.4 uM after 48 hrs by propidium iodide staining based flow cytometry (reference value: 1.13 +/- 0.13%); type: functional
SK-N-AS [36] = experiment: Cell cycle arrest in human SK-N-AS cells assessed as accumulation at sub-G1 phase at 0.4 uM after 72 hrs by propidium iodide staining based flow cytometry (reference value: 1.13 +/- 0.13%); type: functional
SK-N-AS [37] = experiment: Cell cycle arrest in human SK-N-AS cells assessed as accumulation at G0/G1 phase at 0.4 uM after 8 hrs by propidium iodide staining based flow cytometry (reference value: 46.14 +/- 3.63%); type: functional
SK-N-AS [38] = experiment: Cell cycle arrest in human SK-N-AS cells assessed as accumulation at S phase at 0.4 uM after 8 hrs by propidium iodide staining based flow cytometry (reference value: 28.55 +/- 0.74%); type: functional
SK-N-AS [39] = experiment: Cell cycle arrest in human SK-N-AS cells assessed as accumulation at S phase at 0.4 uM after 72 hrs by propidium iodide staining based flow cytometry (reference value: 28.55 +/- 0.74%); type: functional
SK-N-AS [40] = experiment: Cell cycle arrest in human SK-N-AS cells assessed as accumulation at G2/M phase at 0.4 uM after 8 hrs by propidium iodide staining based flow cytometry (reference value: 25.31 +/- 2.89%); type: functional
SK-N-AS [41] = experiment: Cell cycle arrest in human SK-N-AS cells assessed as accumulation at G2/M phase at 0.4 uM after 24 hrs by propidium iodide staining based flow cytometry (reference value: 25.31 +/- 2.89%); type: functional
SK-N-AS [42] = experiment: Growth inhibition of human SK-N-AS cells at 4 uM after 24 hrs by MTT assay relative to control; type: functional; settings: read-out: GI
SK-N-AS [43] = experiment: Growth inhibition of human SK-N-AS cells at 4 uM after 72 hrs by MTT assay relative to control; type: functional; settings: read-out: GI
SK-N-AS [44] = experiment: Cell cycle arrest in human SK-N-AS cells at 4 uM up to 72 hrs by propidium iodide staining based flow cytometry; type: functional
IMR-32 [45] = experiment: Induction of apoptosis in human IMR32 cells assessed as decrease in Bcl-2 mRNA expression level at 4 uM after 24 hrs by real-time PCR method relative to control; type: functional; parameters: scale not given: the % may be the effect or the level left
IMR-32 [46] = experiment: Induction of apoptosis in human IMR32 cells assessed as decrease in Bcl-2 mRNA expression level at 4 uM after 8 hrs by real-time PCR method; type: functional, cell-based
IMR-32 [47] = experiment: Reduction in N-myc mRNA expression level in human IMR32 cells at 4 uM after 8 hrs by real-time PCR method; type: functional, cell-based

CCCCCCCCCCCCNc1ccc(O)cc1
inhibition of growth at 1 µM (SK-N-AS [1]): 82% | inhibition of growth at 1 µM (SK-N-AS [2]): 83 to 90% | inhibition of growth at 0.1 µM (IMR-32 [3]): 78% | inhibition of growth at 0.1 µM (IMR-32 [4]): 92% | inhibition of growth at 0.4 µM (IMR-32 [5]): 100% | inhibition of growth at 0.01 µM (IMR-32 [6]): 15% | fold change (FC) (SK-N-AS [7]): 1.18 | fold change (FC) (SK-N-AS [8]): 1.18 | fold change (FC) (SK-N-AS [9]): 1.17 | fold change (FC) (SK-N-AS [10]): 0.73 | fold change (FC) (SK-N-AS [11]): 0.89 | fold change (FC) (SK-N-AS [12]): 0.79 | fold change (FC) (SK-N-AS [13]): 0.68 | Activity (SK-N-AS [14]): Tde | fold change (FC) (SK-N-AS [15]): 3 | fold change (FC) (SK-N-AS [16]): 23 | fold change (FC) (SK-N-AS [17]): 1.6 | fold change (FC) (SK-N-AS [18]): 3.6 | fold change (FC) (SK-N-AS [19]): 5.3 | fold change (FC) (SK-N-AS [20]): 12 | Activity (SK-N-AS [21]): Tde | Activity (SK-N-AS [22]): Dose-dependent effect | Activity (SK-N-AS [23]): inactive | Activity (SK-N-AS [24]): 35% | Activity (SK-N-AS [25]): 19% | Activity (IMR-32 [26]): 63% | Activity (IMR-32 [27]): inactive | Activity (IMR-32 [28]): 52% | Activity (IMR-32 [29]): inactive | inhibition in vivo at 12.5 mg/kg/day (SK-N-AS [30]): 40% | inhibition in vivo at 50 mg/kg/day (SK-N-AS [31]): 58% | Activity (SK-N-AS [32]): 33% | Activity (SK-N-AS [33]): 37% | Activity (Mus musculus): Non-Toxic | Activity (SK-N-AS [34]): 1.19% | Activity (SK-N-AS [35]): 5.57% | Activity (SK-N-AS [36]): 9.78% | Activity (SK-N-AS [37]): 47.04% | Activity (SK-N-AS [38]): 22.4% | Activity (SK-N-AS [39]): 28.8% | Activity (SK-N-AS [40]): 30.56% | Activity (SK-N-AS [41]): 24.84%

CCCCCCCCCC(=O)Nc1ccc(O)cc1
inhibition of growth at 4 µM (SK-N-AS [42]): 5% | inhibition of growth at 4 µM (SK-N-AS [43]): 13%

CC1=C(/C=C/C(C)=C/C=C/C(C)=C/C(=O)Nc2ccc(O)cc2)C(C)(C)CCC1 [FENRETINIDE]
inhibition of growth at 1 µM (SK-N-AS [1]): 2% | inhibition of growth at 1 µM (SK-N-AS [2]): 10% | inhibition of growth at 0.1 µM (IMR-32 [3]): 4% | inhibition of growth at 0.1 µM (IMR-32 [4]): 17% | inhibition of growth at 0.4 µM (IMR-32 [5]): 27% | inhibition of growth at 0.01 µM (IMR-32 [6]): 15% | Activity (SK-N-AS [44]): Active | fold change (FC) (SK-N-AS [16]): 5 | fold change (FC) (SK-N-AS [20]): 4.7 | Activity (SK-N-AS [21]): Tde | Activity (SK-N-AS [25]): 62% | Activity (IMR-32 [45]): 69% | Activity (IMR-32 [46]): inactive | Activity (IMR-32 [28]): 27% | Activity (IMR-32 [47]): inactive

Reference: ChEMBL document CHEMBL4043234, “Anticancer efficacy of p-dodecylaminophenol against high-risk and refractory neuroblastoma cells in vitro and in vivo” (Bioorg Med Chem Lett, 2017)
